Measurements as given in patent US20210395250A1, “NOVEL CRYSTAL OF (3S)-3-[2-(6-AMINO-2-FLUOROPYRIDIN-3-YL)-4-FLUORO-1H-IMIDAZOL-5-YL]-7-[5-CHLORO-2-(1H-TETRAZOL-1-YL)PHENYL]-2,3-DIHYDROINDOLIZIN-5(1H)-ONE” (priority 2018, published 2021).
Values after ≈ are worked out from the molar mass of the structure shown. Where two headings read alike, the source gives them in different places.

Columns and labels:
[1] = Evaluation of hygroscopicity: isothermal absorption curve measurement (DVS); format: physicochemical
Method: Physical Chemical Example 1: Evaluation of Hygroscopicity
An isothermal absorption curve measurement (DVS) was carried out under the following conditions.
Device: DVS Intrinsic, manufactured by SMS
Measurement temperature: 25° C.
Measurement range: relative humidity of 0 to 95%
Interval of measurement: relative humidity of 5%

[2] = Evaluation of oral absorption after oral administration of suspensions to monkeys; details: for oral absorption rate (%): cynomolgus monkeys/male, fasted, 1 mg/kg oral suspension in 0.5% aqueous methyl cellulose, oral AUC / intravenous AUC (1 mg/kg) x 100
Method: The measurement of oral absorption was carried out under the following conditions.
Each of the suspensions was prepared with a 0.5% aqueous methyl cellulose solution at a concentration of 0.33 mg/mL (in terms of free base content). Each of the suspensions was administered to monkeys (cynomolgus monkeys/male), which had been fasted since the day before, in the stomach thereof forcibly with a sonde. The amount of administration was adjusted depending on the body weight of each of the monkeys so that the dosage amount became 1 mg/kg.
After the administration of the suspensions (liquid pharmaceuticals), at the timing of 0.25, 0.5, 1, 2, 4, 7 and 24 hours after the administration, blood (0.5 mL) was collected from the cephalic vein with a heparin-added syringe. The collected blood was centrifuged at 10000 G for 5 minutes to separate plasma from the blood. In the evaluation of the oral absorption of the test compounds, data obtained when the test compounds were administered intravenously at the same dose amounts (1 mg/kg) were employed. The oral absorption rate (%) was calculated by dividing an AUC (area under the blood concentration-time curve) value obtained in the oral administration by an AUC value obtained in the intravenous administration and then multiplying the resultant value by 100.
The whole volume of the solution was added to Oasis HLB μElution Plate through which acetonitrile (200 μL) and purified water (200 μL) had been passed, and was then sucked under reduced pressure. Purified water (200 μL) was added to the solution, and the resultant solution was washed by sucking under reduced pressure. Acetonitrile (200 μL) was added to the solution, the resultant solution was sucked under reduced pressure, and an eluate was collected in a 96-well plate. The eluate (10 μL) was added to a 0.1% aqueous formic acid solution/acetonitrile (2/1) solution (290 μL), and the resultant solution was stirred and was then analyzed by LC/MS/MS.
The analysis by LC/MS/MS was carried out under the following conditions.
Measurement device: API-5000 (manufactured by Applied Biosystems/MDS SCIEX) Analysis column: Cadenza CD-C18 (2.0 mm I.D.×100 mm, 3 μm) Flow rate: 0.4 mL/min. Components of mobile phase: a 0.1% aqueous formic acid solution/acetonitrile (0 minute: 65/35, 4.0 minutes: 65/35, 4.1 minutes: 10/90, 5.0 minutes: 10/90, 5.1 minutes: 65/35, 7.0 minutes: 65/35) Scan type: MRM (Multiple Reaction Monitoring)

[3] = Evaluation of solubility in JP 1st fluid and artificial intestinal juice (FaSSIF), HPLC; format: physicochemical; details: after 24 hours; for solubility at 24 h: 37 °C, thermodynamic from solid
Method: The measurement of solubility was carried out under the following conditions.
About 3 mg of each of the compounds of the present invention was weighed in a test tube, then a stirrer and 5 mL of each of an artificial intestinal juice (FaSSIF; Reference Document 1: Pharmaceutical Research, vol. 20, pp. 1674-1680, 2003; Reference Document 2: Biological & Pharmaceutical Bulletin, vol. 34, pp. 401-407, 2011) and JP 1st fluid which had been warmed to 37° C. were added to the test tube, and then the test tube was sealed hermetically. The test tube was installed in a solubility test device (Gilson, Quad-Z 215), and the solution was stirred at 37° C. and 700 rpm. After 0.25, 0.5, 1, 3, 6 and 24 hours, an aliquot of the solution in the test tube was collected. The collected solution was filtrated through a filter, and a filtrate was diluted two-folds with acetonitrile. A diluted solution of the artificial intestinal juice was centrifuged at 3000 rpm for 5 minutes, and a supernatant was used as a sample solution. A diluted solution of the JP 1st fluid was used as is as a sample solution. Solubility was calculated by a high-performance liquid chromatography method.
Column: Waters Xbridge ShieldRP18 (4.6 mm (inner diameter)×50 mm, 3.5 μm) Column temperature: 40° C. Component of mobile phase: 20 mM potassium dihydrogen phosphate (pH 3.0)/acetonitrile (0 minute: 70/30, 5 minutes: 25/75)
Flow rate: 1.0 mL/min Sample rack temperature: 15° C. Sample injection amount: 10 μL Measurement time: 5 minutes Retention time: 2.6 minutes

[4] = artificial intestinal juice (FaSSIF), 37° C., 700 rpm
[5] = artificial intestinal juice (FaSSIF), 37° C.

Compound | hygroscopicity (in words) [1] | oral absorption rate (%) [2] [%] | Solubility, JP 1st fluid ([3]; JP 1st fluid, 37° C., 700 rpm) [μg/m] | Solubility, Artificial intestinal juice [3, 4] [μg/m] | solubility in the artificial intestinal juice [3, 5] [µg/mL] | other results
Nc1ccc(-c2nc(F)c([C@@H]3CCc4cc(-c5cc(Cl)ccc5-n5cnnn5)cc(=O)n43)[nH]2)c(F)n1 [Example 1(11), (3S)-3-[2-(6-amino-2-fluoro-3-pyridinyl)-4-fluoro-1H-imidazol-5-yl]-7-[5-chloro-2-(1H-tetrazol-1-yl)phenyl]-2,3-dihydro-5(1H)-indolizinone dihydrate] | high hygroscopicity |  |  |  |  | oral absorption rate (%) ([2]; dihydrate): 26%; oral absorption (in words) ([2]; monkeys, oral): poor oral absorption; solubility at 24 h ([3]; JP 1st fluid, simulated gastric fluid, JP 1st fluid, 700 rpm, read-out: Solubility, JP 1st fluid): 41 µg/mL; solubility at 24 h ([3]; JP 1st fluid, simulated gastric fluid, JP 1st fluid, read-out: solubility in the JP 1st fluid): 41 µg/mL; solubility at 24 h ([3]; artificial intestinal juice (FaSSIF), fassif, artificial intestinal juice (FaSSIF), 700 rpm, read-out: Solubility, Artificial intestinal juice): 47 µg/mL; solubility at 24 h ([3]; artificial intestinal juice (FaSSIF), fassif, artificial intestinal juice (FaSSIF), read-out: solubility in the artificial intestinal juice): 47 µg/mL
Nc1ccc(-c2nc(F)c([C@@H]3CCc4cc(-c5cc(Cl)ccc5-n5cnnn5)cc(=O)n43)[nH]2)c(F)n1 [Example 5, (3S)-3-[2-(6-Amino-2-fluoropyridin-3-yl)-4-fluoro-1H-imidazol-5-yl]-7-[5-chloro-2-(1H-tetrazol-1-yl)phenyl]-2,3-dihydroindolizin-5(1H)-one-3-hydroxybenzoic acid (1/1)] |  | ~100 | 75 | 60 | 60 (≈ 118 µM) | weight change rate ([1]; DVS, 25° C., relative humidity of 0 to 95%): less than 1%; solubility in the JP 1st fluid ([3]; JP 1st fluid, 37° C.): 75 µg/mL (≈ 148 µM)
(3S)-3-[2-(6-Amino-2-fluoropyridin-3-yl)-4-fluoro-1H-imidazol-5-yl]-7-[5-chloro-2-(1H-tetrazol-1-yl)phenyl]-2,3-dihydroindolizin-5(1H)-one-3-hydroxybenzoic acid (1/1) [Example 5] | low hygroscopicity |  |  |  |  | 
(3S)-3-[2-(6-Amino-2-fluoropyridin-3-yl)-4-fluoro-1H-imidazol-5-yl]-7-[5-chloro-2-(1H-tetrazol-1-yl)phenyl]-2,3-dihydroindolizin-5(1H)-one-nicotinamide (2/1) [Example 4] |  | 44 | 77 | 60 | 60 | 
